In patent publication US10045966B2, “Compositions and methods for treating microbial infections” (Vanderbilt Univeristy, priority 2012, dated 2018):
“Also recorded” adds a separate entry of the source.

Key:
HssRS = assay: XylE reporter assay (hrtAB promoter-xylE fusion) for HssRS activation; type: cell-based, S. aureus; conditions: for HssRS activation (XylE reporter activity): S. aureus carrying phrt.xylE; for HssRS activation in heme auxotroph ΔhemB: S. aureus hemB::ermC (ΔhemB) carrying phrt.xylE
Experimental: (§1) FIGS. 9A-9C describe a high throughput screen that identifies small molecule activators of HssRS. (A) A secondary screen consisting of a XylE reporter assay verified the activity of the top 110 hits from the primary screen, including '882. Triplicate cultures of S. aureus WT and ΔhssR transformed with the hrtAB promoter-xylE fusion-containing plasmid (phrt.xylE) were grown in the presence of the indicated additive and XylE activity was measured. (B) The structure of lead compound VU0038882 (′882). (C) '882 was confirmed as a hit in a tertiary screen that measured the ability of the compound to pre-adapt S. aureus for growth in 20 μM heme. Triplicate cultures of WT S. aureus were grown overnight in medium containing the indicated additive and sub-cultured into medium containing 20 μM heme. Growth was monitored by measuring the optical density at 600 nm (OD600) over time. (A and C) Error bars represent one standard deviation from the mean.
The present inventors designed and conducted a screening assay to identify activators of HssRS. With reference to FIG. 2A, a reporter plasmid containing the luxABCDE operon from Photorhabdus luminescens driven by the hrtAB promoter (phrt.lux) was used to screen 160,000 compounds from the VICB small molecule library with luminescence. With reference to FIG. 2B, 110 of the top hits from the primary screen were confirmed in a secondary screen using a xylE reporter gene driven by the hrtAB promoter (phrt.xylE). […] Activation of HssRS by a sub-toxic concentration of heme protects S. aureus from a subsequent toxic concentration of heme by upregulating HrtAB. The inhibition of growth due to heme toxicity is determined by measuring the optical density of bacterial cultures at 600 nm. In each screen the present inventors identified hits by comparing their activity to that of heme. […] Cultures of wildtype and ΔhssR carrying phrt.xylE were assayed for XylE activity upon '8882 treatment. The screening method designed by the present inventors as able to successfully identify small molecule activators of the S. aureus heme stress response.
Analogs of '882 were divided into two classes, and chemical modifications of both the Western-naphthol ring and the Eastern-furan ring were conducted. Each set was screened against the XylE assay with heme and '882 as standards for comparison. […] Examples of synthesized compounds and their activity classifications are shown above.

S. aureus [1] = assay: Pre-adaptation for heme toxicity, growth curve analysis; type: cell-based; conditions: overnight pre-treatment, subculture into 20 μM heme
Experimental: as §1, with “(A and C) Error bars represent one standard deviation from the mean.” left out
The present inventors designed and conducted a screening assay to identify activators of HssRS. With reference to FIG. 2A, a reporter plasmid containing the luxABCDE operon from Photorhabdus luminescens driven by the hrtAB promoter (phrt.lux) was used to screen 160,000 compounds from the VICB small molecule library with luminescence. […] The inhibition of growth due to heme toxicity is determined by measuring the optical density of bacterial cultures at 600 nm. […]

S. aureus [2] = type: cell-based; conditions: for Growth of ΔmenB (cannot respire, solely ferments): S. aureus ΔmenB, aerobic and anaerobic
S. aureus [3] = assay: Systemic staphylococcal infection in mice, liver CFUs and abscesses; type: in vivo; conditions: mice infected intravenously, intraperitoneal treatment, 96 h
Experimental: FIGS. 16A-16D show embodiments of the preset invention reduce S. aureus pathogenesis in vivo. Mice infected retroorbitally with S. aureus were treated intraperitoneally with vehicle (10% Tween 80) or '373. After 96 h mice were sacrificed and (A) CFUs and (B) surface abscesses were enumerated from the livers. Each marker represents an individual mouse. Data were collected from three independent experiments resulting in n=13 for vehicle and n=12 for '373-treated mice once the highest and lowest values were removed from each group. The horizontal line indicates the mean and the error bars represent the standard error of the mean. Statistical significance was determined by a two-tailed Student's t-test. Livers from mice treated with the indicated dose of '373 were harvested 24 h post-infection (1 h after the 2nd treatment), sectioned, and mounted on MALDI target plates (C). (D) Tissue sections were imaged by MALDI-MS/MS for accumulation of a fragment of '373 by MALDI-MS/MS (m/z 255.2→134). Spectra were acquired at 10 microscans per step. 5 laser shots were acquired per pixel and pixels were obtained every 100 μm.

[4] = Liver tissue level by Imaging Mass Spectrometry and HPLC-MS; conditions: HPLC-MS of excised liver, 24 h post-infection
[5] = tested on: Corynebacterium diphtheriae; assay: Adaptation to heme toxicity, CFU enumeration; type: cell-based; conditions: C. diphtheriae, subculture into 15 μM heme, versus non-adapted cultures
[6] = tested on: Staphylococcus haemolyticus; assay: Adaptation to heme toxicity, growth curve; type: cell-based; conditions: S. haemolyticus, subculture into 30 μM heme, versus non-adapted cultures
intracellular heme = assay: Intracellular heme quantification; type: cell-based, S. aureus; conditions: for Intracellular (endogenous) heme levels: pyridine hemochromogen assay / UPLC-MS
Experimental: (B) Heme levels in triplicate cultures of S. aureus treated with the indicated additive were quantified using the pyridine hemochromogen assay and normalized to the concentration of protein in the whole cell lysates. […] (A and B) Error bars represent one standard deviation from the mean. (C) Exact-mass mass spectrometric analysis was used in conjunction with UPLC to detect and quantify heme in protoplasts from cells treated with 40 μM '882 or vehicle grown in triplicate. Measured heme molecules were referenced to estimated CFUs per pellet, factoring in dilutions. Dead or lysed cells would also contribute to the measurement. […] Samples measured in duplicate or triplicate injections had typical errors of <5% between analytical replicates. Error bars represent the standard deviation and significance was calculated using a two-tailed Student's t-test.
Heme levels were quantified using the pyridine hemochromogen assay and normalized to the concentration of protein in the whole cell lysates.
To directly test if '882 exposure increases heme levels within staphylococci, intracellular heme abundance was measured using two distinct approaches. First, intracellular heme levels were quantified using a commercially available heme quantification kit (BioAssay systems).

IsdG = IsdG abundance by immunoblot as reporter of cytoplasmic heme; type: cell-based, S. aureus
Experimental: Wild type and ΔhemV S. aureus transformed with isdG driven under the constitutive Igt promoter (pIgt.isdG) were grown in the presence of increasing concentrations of '8882. Whole cell lysates, along with a protein standard, were blotted with anti IsdG polyclonal antisera and IsdG levels were quantified by densitometry.
Second, the intracellular abundance of the heme stabilized protein IsdG was used as a barometer of functional cytoplasmic heme levels (43), i.e., IsdG is a heme stabilized protein that can be used as a reporter for intracellular heme levels. With reference to FIG. 4A, S. aureus ΔisdG and ΔhemB were transformed with a plasmid that constitutively expresses IsdG (plgt.isdG). These strains were grown to stationary phase in the presence of the indicated concentration of '8882 or heme. Whole cell lysates were immunoblotted with anti-IsdG polyclonal antisera and bands were quantified using densitometry.
To determine if the endogenous heme produced as a result of '882 exposure is available for use in cellular processes, cytoplasmic heme availability was measured by quantifying intracellular levels of the cytoplasmic heme oxygenase IsdG. In the absence of exogenous heme, IsdG is rapidly degraded; however, heme binding stabilizes IsdG and reduces its proteolytic degradation. Therefore, the abundance of IsdG reflects the cytoplasmic levels of heme.

C. diphtheriae = assay: Growth of C. diphtheriae; type: cell-based
S. aureus [7] = assay: Fermentative activity: pH, D-glucose and lactate in culture supernatants; type: cell-based; conditions: aerobic cultures
Experimental: FIGS. 12A-12C show examples of the present invention diminish fermentative activity. S. aureus was grown in triplicate under aerobic conditions in the presence of vehicle (black lines) or 40 μM '882 (gray lines). At the indicated time intervals, culture supernatants were sampled and the (A) pH, (B) D-glucose, and (C) D- and L-lactate were quantified. Error bars represent one standard deviation from the mean.
(§2) The effects of '8882 on fermentation was studied. With reference to FIG. 7A, S. aureus was grown in the presence of the indicated concentration of '8882 or cyanide. Growth was monitored over time by measuring the optical density at 600 nm and normalized to vehicle treated S. aureus. With reference to FIG. 7B, the concentration of glucose and lactate was measured in supernatants collected from S. aureus cultures containing vehicle or '8882. With reference to FIG. 7C, S. aureus grown in the presence or absence of '8882 was subjected to nitric oxide stress after 5 hours of growth. With reference to FIG. 7D, S. aureus was incubated with murine neutrophils in media containing either vehicle or '8882. Bacterial viability was determined by enumerating colony forming units on solid media.

S. aureus [8] = type: cell-based; conditions: 24 h; for Viable and gentamicin-resistant bacteria, single agent: treatment alone
Experimental: (A) S. aureus wildtype (WT, dashed lines), the menaquinone auxotroph (ΔmenB, dotted lines), and the heme auxotroph hemB::ermC (ΔhemB, solid lines) were grown in triplicate under aerobic (aer, black lines) and anaerobic (ana, gray lines) conditions in the presence of the indicated log of the concentration of '882 (μM). After 18 h the absorbance at 600 nm (OD600) was measured and normalized to vehicle (DMSO) treated bacteria. Curves were fit by nonlinear regression analysis and absolute log IC50 values were calculated in Prism with the top set at 1.0 and the bottom set at 0.15. […] Error bars represent the standard error of the mean. (B) Triplicate cultures of S. aureus were grown in the presence of the indicated additive. […] Shown is the average of three independent experiments. Error bars represent one standard deviation from the mean. (C) S. aureus was grown in the presence of vehicle (DMSO) or 40 μM '882 and coated in serum. Murine PMNs were elicited with casein and harvested from the peritoneum. The ability of neutrophils to kill S. aureus in the presence of '882 was assessed by comparing CFUs recovered from neutrophil-exposed S. aureus to those recovered from identical conditions lacking neutrophils. The mean of at least six independent experiments performed in triplicate are represented by the data; error bars represent standard error of the mean and significance was determined by a two-tailed Student's t-test.
S. aureus SCVs are obligate fermenters that emerge in response to aminoglycoside treatment. […] To test this, S. aureus was grown in the presence of vehicle, gentamicin, '882, or a combination of gentamicin and '882, and the evolution of gentamicin resistance was monitored.

S. aureus Newman = assay: Co-treatment with kanamycin, CFU enumeration after 24 h; type: cell-based; conditions: TSB
Experimental: With reference to FIG. 8A, S. aureus Newman was cultured in TSB containing the indicated amount of kanamycin or '8882. After 24 h colony forming units (CFUs) were enumerated on solid medium. The dashed line indicates the limit of detection (LOD) and the asterisk denotes that two of the three replicates were below the LOD. Turning to FIG. 8B, 50 ul of each experimental groups was plated on TSA at a dilution of 1:100 except for the co-treatment group, which was plated undiluted. Two of the three co-treated replicates had no viable colonies.

S. aureus [9] = assay: Neutrophil killing of S. aureus; type: cell-based; conditions: murine PMNs, 40 μM
neutrophils = type: cell-based, Murine
S. aureus [10] = assay: Nitric oxide stress of S. aureus; type: cell-based; conditions: simultaneous exposure to NO.
Experimental: as §2

[11] = Chemical stability, rule of five and solubility; conditions: free base and trifluoroacetate salt

## Oc1ccccc1-c1cc(-c2ccccc2F)[nH]n1 ['373]
HssRS
  HssRS activation (XylE reporter activity): activates HssRS
S. aureus [1]
  Pre-adaptation of S. aureus for heme toxicity: pre-adapt S. aureus for heme toxicity
S. aureus [2]
  Growth of ΔmenB (cannot respire, solely ferments): inhibits the growth of S. aureus ΔmenB, although to a lesser extent than '882
S. aureus [3]
  Decrease in CFUs recovered from the livers versus vehicle: 1 log
  Number of liver abscesses: significant reduction in the number of liver abscesses
[4]
  Liver tissue level versus dose: linear relationship between tissue level and dose

## Oc1c(-c2cc(-c3ccco3)[nH]n2)ccc2ccccc12 ['882]
HssRS
  HssRS activation (XylE reporter activity): activates the hrtAB promoter in a dose-responsive manner
  HssRS activation in heme auxotroph ΔhemB: does not activate HssRS in ΔhemB
HssRS; listed as '8882
  HssRS activation (XylE reporter activity): most potent activator of HssRS
S. aureus [1]
  Pre-adaptation of S. aureus for heme toxicity: pre-adapts S. aureus for heme toxicity
[5]
  Survival in heme after pre-treatment: improved survival in heme
[6]
  Survival in heme after pre-treatment: improved survival in heme
Intracellular heme; commercial heme quantification kit (BioAssay systems)
  Increase of intracellular heme versus non-exposed bacteria: approximately 10%
Intracellular heme
  Intracellular (endogenous) heme levels: increase in a dose-responsive manner
IsdG; S. aureus constitutively expressing IsdG
  Intracellular abundance of IsdG: increases the abundance of IsdG in a concentration-dependent fashion
IsdG; S. aureus ΔhemB
  Stabilization of IsdG in ΔhemB: not stabilized
S. aureus [2]
  Bacteriostatic or bacteriocidal (CFU input versus output): bacteriostatic to fermentatively growing staphylococci
  Concentration that halts S. aureus growth: less than 5 μM
  Growth of ΔmenB (cannot respire, solely ferments): more susceptible to '882 toxicity than wildtype; also recorded: bacteriostatic
S. aureus [2]; S. aureus ΔhemB
  Growth of ΔhemB (SCV deficient in heme biosynthesis): sensitive to '882
S. aureus [2]; anaerobic
  Growth of wildtype S. aureus grown anaerobically: growth was dramatically reduced
S. aureus [2]; combined with KCN, aerobic
  Growth of S. aureus in combination with potassium cyanide (KCN): growth is inhibited, even under aerobic conditions
C. diphtheriae
  Growth of C. diphtheriae: inhibits the growth of C. diphtheriae
S. aureus [7]
  Glycolytic / fermentative activity (acidification, D-glucose consumption, lactate production): reduced glycolytic activity
S. aureus [7]; listed as '8882
  Glycolytic / fermentative activity (acidification, D-glucose consumption, lactate production): reduces the ability of S. aureus to ferment
S. aureus [8]; combined with gentamicin
  Gentamicin-resistant colonies, combination with gentamicin: eliminated all detectable gentamicin-resistant colonies
  Reduction in bacterial viability, combination with gentamicin: 5 log
S. aureus [8]
  Viable and gentamicin-resistant bacteria, single agent: did not affect the number of viable or gentamicin-resistant bacteria
S. aureus Newman
  Antibiotic efficacy on co-treatment with kanamycin: improves antibiotic efficacy in vitro
S. aureus [9]
  Neutrophil-dependent killing of S. aureus: improves neutrophil-dependent killing of S. aureus
neutrophils
  Neutrophil viability: does not overtly affect neutrophil viability
S. aureus [10]
  Antibacterial effect of simultaneous exposure with nitric oxide (NO.): more antibacterial than treatment with either molecule alone
[11]
  Chemical stability: good chemical stability
  Rule of five violations: no rule of five violations
[11]; DMSO and aqueous solution
  Solubility: good solubility in DMSO and aqueous solution

## O=CC[C@@H](O)[C@H](O)[C@H](O)CO [Compound 2dG, 2-deoxyglucose, reference compound]
Intracellular heme
  Intracellular (endogenous) heme levels: reduces endogenous heme levels

## C=CC1=C(C)c2cc3[n-]c(cc4[n-]c(cc5nc(cc1n2)C(C)=C5C=C)c(C)c4CCC(=O)O)c(CCC(=O)O)c3C.[Fe+2] [heme, reference compound]
HssRS
  HssRS activation in heme auxotroph ΔhemB: activates HssRS in ΔhemB
[5]
  Survival in heme after pre-treatment: improved survival in heme
[6]
  Survival in heme after pre-treatment: improved survival in heme

## gentamicin [reference compound]
S. aureus [8]
  Viable and gentamicin-resistant bacteria, single agent: became resistant to gentamicin
